Columns and labels:
[1] = tested on: myeloid Src-family kinases; set-up: method as in S. Hellwig and T. Smithgall, unpublished data; details: ref S. Hellwig and T. Smithgall, unpublished data; cited from earlier work
[2] = tested on: MOLM13 cells (parent); assay: CellTiter-Blue cell viability; assay type: cell-based, human; details: Homo sapiens, MOLM-13, S11 Fig, read-out: PRT062607 IC50, nM (growth suppression)
Description: (§1) Gibco/ThermoFisher). Parental TF-1 cells also require recombinant human GM-CSF (1 ng/mL; ThermoFisher). MOLM13 and MOLM14 cells were obtained from Leibniz Institute Deutsche Sammlung von Mikroorganismen (DSMZ) and grown in RPMI 1640 medium containing 20% FBS and Antibiotic-Antimycotic. […] Cell viability was assessed using the CellTiter-Blue reagent according to the manufacturer’s instructions (Promega). Fluorescence intensity, which correlates directly with viable cell number, was measured using a SpectraMax M5 microplate reader. Each experiment included three technical replicates per condition, and each experiment was repeated at least three times.

[3] = tested on: MOLM14 cells (parent); assay: CellTiter-Blue cell viability; assay type: cell-based, human; details: Homo sapiens, MOLM-14, S11 Fig, read-out: PRT062607 IC50, nM (growth suppression)
Description: as §1

[4] = tested on: MV4-11 cells (parent); assay: CellTiter-Blue cell viability; assay type: cell-based, human; details: Homo sapiens; S11 Fig; MV4-11 Parent; read-out: PRT062607 IC50, nM (growth suppression)
Description: as §1

[5] = tested on: MOLM13 R3 (A-419259-resistant population); assay: CellTiter-Blue cell viability; assay type: cell-based, human; details: Homo sapiens, MOLM-13, S11 Fig, read-out: PRT062607 IC50, nM (growth suppression)
Description: (§2) Cell viability was assessed using the CellTiter-Blue reagent according to the manufacturer’s instructions (Promega). Fluorescence intensity, which correlates directly with viable cell number, was measured using a SpectraMax M5 microplate reader. Each experiment included three technical replicates per condition, and each experiment was repeated at least three times. […] Viability of each cell population was measured three times per week using the CellTiter-Blue assay.

[6] = tested on: MOLM14 R1 (A-419259-resistant population); assay: CellTiter-Blue cell viability; assay type: cell-based, human; details: Homo sapiens, MOLM-14, S11 Fig, read-out: PRT062607 IC50, nM (growth suppression)
Description: as §2

[7] = tested on: MOLM14 R2 (A-419259-resistant population); assay: CellTiter-Blue cell viability; assay type: cell-based, human; details: Homo sapiens, MOLM-14, S11 Fig, read-out: PRT062607 IC50, nM (growth suppression)
Description: as §2

[8] = tested on: MOLM14 R3 (A-419259-resistant population); assay: CellTiter-Blue cell viability; assay type: cell-based, human; details: Homo sapiens, MOLM-14, S11 Fig, read-out: PRT062607 IC50, nM (growth suppression)
Description: as §2

[9] = tested on: MV4-11 R2 (A-419259-resistant population); assay: CellTiter-Blue cell viability; assay type: cell-based, human; details: Homo sapiens, S11 Fig, read-out: PRT062607 IC50, nM (growth suppression)
Description: as §2

[10] = tested on: MV4-11 R3 (A-419259-resistant population); assay: CellTiter-Blue cell viability; assay type: cell-based, human; details: Homo sapiens, S11 Fig, read-out: PRT062607 IC50, nM (growth suppression)
Description: as §2

[11] = tested on: MV4-11, MOLM13 and MOLM14 parent and A-419259-resistant cell populations; assay: CellTiter-Blue cell viability, parent and resistant AML populations as a group; assay type: cell-based, human
Description: as §2

[12] = biological target: T1, Hck wild-type (Homo sapiens, UniProt P08631); assay: Z'-LYTE in vitro kinase assay; assay type: biochemical; details: Tyr-2 peptide 1.0 μM, read-out: ATP Km
T1 construct: Recombinant near-full-length kinases, consisting of the SH2, SH3 and kinase domains plus the negative regulatory tail; made in house; host or cells: E. coli BL21Star (DE3), co-expressed with Csk and PTP1B

[13] = biological target: T2, Hck T338M (Homo sapiens, UniProt P08631, T333M); assay: Z'-LYTE in vitro kinase assay; assay type: biochemical; details: Hck T338M; Tyr-2 peptide 1.0 μM; read-out: ATP Km
T2 construct: Recombinant near-full-length kinases, consisting of the SH2, SH3 and kinase domains plus the negative regulatory tail; made in house; host or cells: E. coli BL21Star (DE3), co-expressed with Csk and PTP1B

[14] = biological target: T3, Hck T338L (Homo sapiens, UniProt P08631, T333L); assay: Z'-LYTE in vitro kinase assay; assay type: biochemical; details: Hck T338L; Tyr-2 peptide 1.0 μM; read-out: ATP Km
T3 construct: Recombinant near-full-length kinases, consisting of the SH2, SH3 and kinase domains plus the negative regulatory tail; made in house; host or cells: E. coli BL21Star (DE3), co-expressed with Csk and PTP1B

[15] = biological target: T4, Hck T338F (Homo sapiens, UniProt P08631, T333F); assay: Z'-LYTE in vitro kinase assay; assay type: biochemical; details: Hck T338F; Tyr-2 peptide 1.0 μM; read-out: ATP Km
T4 construct: Recombinant near-full-length kinases, consisting of the SH2, SH3 and kinase domains plus the negative regulatory tail; made in house; host or cells: E. coli BL21Star (DE3), co-expressed with Csk and PTP1B

[16] = biological target: T5, Fgr wild-type (Homo sapiens, UniProt P09769); assay: Z'-LYTE in vitro kinase assay; assay type: biochemical; details: Tyr-2 peptide 1.0 μM, read-out: ATP Km
T5 construct: Recombinant near-full-length kinases, consisting of the SH2, SH3 and kinase domains plus the negative regulatory tail; made in house; host or cells: E. coli BL21Star (DE3), co-expressed with Csk and PTP1B
Description: (§3) Assays were performed in quadruplicate in 384-well low volume, non-binding, black polystyrene microplates (Corning) according to the manufacturer’s instructions. Briefly, this assay measures phosphorylation of the Tyr2 peptide substrate which is tagged with coumarin and fluorescein on its N- and C-termini, respectively, to form a FRET pair. After the kinase reaction, a development step involves site-specific proteolytic cleavage of the unphosphorylated but not the phosphorylated peptide. […] Kinase reactions were run in 50 mM HEPES, pH 7.5, 10 mM MgCl2, 1 mM EGTA, and 0.01% BRIJ-35 (buffer supplied by the manufacturer). […] Following incubation for 1 h at ambient temperature, reactions were quenched by addition of the development protease, and coumarin and fluorescein fluorescence were measured 1 h later on a Molecular Devices SpectraMax M5 plate reader. […] For experiments with inhibitors, compounds were preincubated with kinase for 30 min prior to initiation of the reaction by the addition of ATP.

[17] = biological target: T6, Fgr T338M (Homo sapiens, UniProt P09769, T334M); assay: Z'-LYTE in vitro kinase assay; assay type: biochemical; details: Fgr T338M; Tyr-2 peptide 1.0 μM; read-out: ATP Km
T6 construct: Recombinant near-full-length kinases, consisting of the SH2, SH3 and kinase domains plus the negative regulatory tail; made in house; host or cells: E. coli BL21Star (DE3), co-expressed with Csk and PTP1B
Description: as §3

[18] = biological target: T7, Fgr T338L (Homo sapiens, UniProt P09769, T334L); assay: Z'-LYTE in vitro kinase assay; assay type: biochemical; details: Tyr-2 peptide 1.0 μM, read-out: ATP Km
T7 construct: Recombinant near-full-length kinases, consisting of the SH2, SH3 and kinase domains plus the negative regulatory tail; made in house; host or cells: E. coli BL21Star (DE3), co-expressed with Csk and PTP1B
Description: as §3

[19] = biological target: T8, Fgr T338F (Homo sapiens, UniProt P09769, T334F); assay: Z'-LYTE in vitro kinase assay; assay type: biochemical; details: Fgr T338F; Tyr-2 peptide 1.0 μM; read-out: ATP Km
T8 construct: Recombinant near-full-length kinases, consisting of the SH2, SH3 and kinase domains plus the negative regulatory tail; made in house; host or cells: E. coli BL21Star (DE3), co-expressed with Csk and PTP1B
Description: as §3

[20] = biological target: T9, Lyn wild-type (Homo sapiens, UniProt P07948); assay: Z'-LYTE in vitro kinase assay; assay type: biochemical; details: Tyr-2 peptide 1.0 μM, read-out: ATP Km
T9 construct: Recombinant near-full-length kinases, consisting of the SH2, SH3 and kinase domains plus the negative regulatory tail; made in house; host or cells: E. coli BL21Star (DE3), co-expressed with Csk and PTP1B

[21] = biological target: T10, Lyn T338M (Homo sapiens, UniProt P07948, T319M); assay: Z'-LYTE in vitro kinase assay; assay type: biochemical; details: Tyr-2 peptide 1.0 μM, read-out: ATP Km
T10 construct: Recombinant near-full-length kinases, consisting of the SH2, SH3 and kinase domains plus the negative regulatory tail; made in house; host or cells: E. coli BL21Star (DE3), co-expressed with Csk and PTP1B

[22] = biological target: T11, Lyn T338L (Homo sapiens, UniProt P07948, T319L); assay: Z'-LYTE in vitro kinase assay; assay type: biochemical; details: Tyr-2 peptide 1.0 μM, read-out: ATP Km
T11 construct: Recombinant near-full-length kinases, consisting of the SH2, SH3 and kinase domains plus the negative regulatory tail; made in house; host or cells: E. coli BL21Star (DE3), co-expressed with Csk and PTP1B

[23] = biological target: T12, Lyn T338F (Homo sapiens, UniProt P07948, T319F); assay: Z'-LYTE in vitro kinase assay; assay type: biochemical; details: Tyr-2 peptide 1.0 μM, read-out: ATP Km
T12 construct: Recombinant near-full-length kinases, consisting of the SH2, SH3 and kinase domains plus the negative regulatory tail; made in house; host or cells: E. coli BL21Star (DE3), co-expressed with Csk and PTP1B
T12 sequence (P07948 63-512 T319F limits assumed): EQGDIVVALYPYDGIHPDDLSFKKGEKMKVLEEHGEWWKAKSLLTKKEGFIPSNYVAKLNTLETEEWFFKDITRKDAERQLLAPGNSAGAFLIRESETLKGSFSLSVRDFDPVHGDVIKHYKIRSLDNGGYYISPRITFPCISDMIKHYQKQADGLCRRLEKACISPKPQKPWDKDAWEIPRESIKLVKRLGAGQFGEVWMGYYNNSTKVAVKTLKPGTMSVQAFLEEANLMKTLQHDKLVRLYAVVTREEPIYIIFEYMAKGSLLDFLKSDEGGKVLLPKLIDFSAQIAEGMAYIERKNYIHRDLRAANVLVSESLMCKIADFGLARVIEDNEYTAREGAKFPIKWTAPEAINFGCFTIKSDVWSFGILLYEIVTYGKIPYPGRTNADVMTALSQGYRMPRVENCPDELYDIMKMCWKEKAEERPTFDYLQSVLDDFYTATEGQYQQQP

T9 sequence (P07948 63-512 limits assumed): as the sequence (P07948 63-512 T319F limits assumed) above, with F257T counted along it
T4 sequence (P08631 78-526 T333F limits assumed): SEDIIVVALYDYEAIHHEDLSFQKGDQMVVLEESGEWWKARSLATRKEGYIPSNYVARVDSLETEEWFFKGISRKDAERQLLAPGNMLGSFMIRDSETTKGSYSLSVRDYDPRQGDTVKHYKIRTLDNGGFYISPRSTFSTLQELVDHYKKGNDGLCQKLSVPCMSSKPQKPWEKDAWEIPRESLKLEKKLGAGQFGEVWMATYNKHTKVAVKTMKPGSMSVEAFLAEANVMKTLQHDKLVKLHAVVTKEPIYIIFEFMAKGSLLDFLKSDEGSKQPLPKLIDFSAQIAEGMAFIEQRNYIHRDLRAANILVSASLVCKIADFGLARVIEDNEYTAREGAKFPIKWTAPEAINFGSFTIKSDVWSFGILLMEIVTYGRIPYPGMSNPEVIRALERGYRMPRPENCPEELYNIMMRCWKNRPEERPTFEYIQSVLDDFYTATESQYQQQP
T3 sequence (P08631 78-526 T333L limits assumed): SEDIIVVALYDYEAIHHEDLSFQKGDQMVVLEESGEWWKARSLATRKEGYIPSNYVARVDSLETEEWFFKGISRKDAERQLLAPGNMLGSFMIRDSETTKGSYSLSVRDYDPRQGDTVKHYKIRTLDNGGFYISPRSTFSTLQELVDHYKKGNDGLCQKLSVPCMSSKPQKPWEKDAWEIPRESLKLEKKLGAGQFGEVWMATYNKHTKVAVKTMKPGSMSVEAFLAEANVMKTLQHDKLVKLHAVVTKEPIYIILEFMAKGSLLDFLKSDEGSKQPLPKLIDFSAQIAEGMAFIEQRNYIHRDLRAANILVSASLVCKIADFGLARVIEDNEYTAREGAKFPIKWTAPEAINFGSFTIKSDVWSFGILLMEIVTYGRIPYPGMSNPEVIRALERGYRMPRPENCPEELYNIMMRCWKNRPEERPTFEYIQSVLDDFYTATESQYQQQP
T2 sequence (P08631 78-526 T333M limits assumed): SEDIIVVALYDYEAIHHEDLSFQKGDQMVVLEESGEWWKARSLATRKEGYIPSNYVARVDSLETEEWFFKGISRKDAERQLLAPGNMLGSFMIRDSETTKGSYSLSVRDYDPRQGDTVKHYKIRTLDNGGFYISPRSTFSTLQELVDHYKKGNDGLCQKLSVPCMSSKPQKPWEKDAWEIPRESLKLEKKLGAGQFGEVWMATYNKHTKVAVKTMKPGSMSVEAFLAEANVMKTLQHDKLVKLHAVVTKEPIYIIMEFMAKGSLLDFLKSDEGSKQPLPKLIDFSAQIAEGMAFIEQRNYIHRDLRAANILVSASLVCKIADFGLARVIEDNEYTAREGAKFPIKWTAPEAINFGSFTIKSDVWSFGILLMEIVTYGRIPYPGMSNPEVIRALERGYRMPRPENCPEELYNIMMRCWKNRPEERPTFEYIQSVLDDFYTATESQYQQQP
T10 sequence (P07948 63-512 T319M limits assumed): as the sequence (P07948 63-512 T319F limits assumed) above, with F257M counted along it
T11 sequence (P07948 63-512 T319L limits assumed): as the sequence (P07948 63-512 T319F limits assumed) above, with F257L counted along it
T1 sequence (P08631 78-526 limits assumed): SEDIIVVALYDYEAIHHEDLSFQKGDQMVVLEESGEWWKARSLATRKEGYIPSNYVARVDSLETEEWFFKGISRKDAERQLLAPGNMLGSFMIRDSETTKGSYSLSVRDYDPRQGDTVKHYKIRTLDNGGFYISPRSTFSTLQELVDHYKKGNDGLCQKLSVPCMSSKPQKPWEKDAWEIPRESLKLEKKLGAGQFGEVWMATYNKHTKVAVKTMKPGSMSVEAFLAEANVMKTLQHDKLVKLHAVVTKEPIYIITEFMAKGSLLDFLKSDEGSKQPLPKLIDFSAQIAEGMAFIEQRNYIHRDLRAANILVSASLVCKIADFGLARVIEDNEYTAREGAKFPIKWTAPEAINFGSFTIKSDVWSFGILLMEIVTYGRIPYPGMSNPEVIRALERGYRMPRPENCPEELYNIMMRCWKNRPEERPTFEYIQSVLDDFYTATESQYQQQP

## CC(C)(C)c1cc(NC(=O)Nc2ccc(-c3cn4c(n3)sc3cc(OCCN5CCOCC5)ccc34)cc2)no1 [quizartinib]
[1]
  inhibition of myeloid Src-family kinases: does not inhibit

## NC(=O)c1cnc(N[C@@H]2CCCC[C@@H]2N)nc1Nc1cccc(-n2nccn2)c1 [PRT062607]
[2]
  IC50: 1380 ± 124 nM
[3]
  IC50: 1330 ± 183 nM
[4]
  IC50: 453 ± 90.7 nM
[5]
  IC50: 1990 ± 377 nM
[6]
  IC50: 2030 ± 1090 nM
[7]
  IC50: 1640 ± 154 nM
[8]
  IC50: 1200 ± 128 nM
[9]
  IC50: 1720 ± 93.5 nM
[10]
  IC50: 795 ± 128 nM
[11]; Homo sapiens, all three parent AML cell lines and their resistant counterparts, read-out: IC50 values for growth suppression
  IC50: 500 to 2000 nM
[11]; fixed concentrations 50, 100 and 200 μM, 72 h, exception MV4-11 R2
  effect of added Syk inhibitor on sensitivity to A-419259: did not affect

## Nc1ncnc2c1ncn2[C@@H]1O[C@H](COP(=O)(O)OP(=O)(O)OP(=O)(O)O)[C@@H](O)[C@H]1O [ATP]
[12]
  Km: 26 µM
[13]
  Km: 6.9 µM
[14]
  Km: 17.2 µM
[15]
  Km: 42 µM
[16]
  Km: 17.9 µM
[17]
  Km: 5.3 µM
[18]
  Km: 10 µM
[19]
  Km: 95.7 µM
[20]
  Km: 32.8 µM
[21]
  Km: 7 µM
[22]
  Km: 24 µM
[23]
  Km: 87.3 µM

— article PMC6886798, “Expression of myeloid Src-family kinases is associated with poor prognosis in AML and influences Flt3-ITD kinase inhibitor acquired resistance” (PLoS ONE, 2019)
